# Measured values: patent publication US8952024B2, “Herbicidal pyrimidone derivatives” (E I du Pont de Nemours and Company, priority 2009, dated 2015)
# Experiments:
# Assay in all cases: Test B pre-/postemergence plant response
# Type in all cases: in vivo
# [1] = tested on: cocklebur (Xanthium strumarium); conditions: Preemergence
# How it was run: (§1)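 Response scores were assigned visually after 13 to 15 days in a greenhouse, comparing treated pots with controls on a 0–100 scale where 100 denotes complete control. Preemergence treatments went onto freshly seeded loam/sand soil; postemergence treatments onto plants 2 to 18 cm tall.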
# [2] = tested on: goosegrass (Eleusine indica)
# How it was run: as §1
# [3] = tested on: giant foxtail (Setaria faberii)
# How it was run: as §1
# [4] = tested on: green foxtail (Setaria viridis)
# How it was run: as §1
# [5] = tested on: Italian ryegrass (Lolium multiflorum)
# How it was run: as §1
# [6] = tested on: ragweed (common ragweed, Ambrosia elatior)
# How it was run: as §1
# [7] = tested on: morningglory (Ipomoea coccinea)
# How it was run: as §1
# [8] = tested on: velvetleaf (Abutilon theophrasti)
# How it was run: as §1
# corn (Zea mays) = tested on: corn (Zea mays)
# How it was run: as §1
# [9] = tested on: large crabgrass (Digitaria sanguinalis)
# How it was run: as §1
# [10] = tested on: johnsongrass (Sorghum halepense)
# How it was run: as §1
# [11] = tested on: blackgrass (Alopecurus myosuroides)
# How it was run: as §1
# soybean (Glycine max) = tested on: soybean (Glycine max)
# How it was run: as §1
# kochia (Kochia scoparia) = conditions: Postemergence
# How it was run: as §1
# [12] = 62 g ai/ha, scale 0 to 100 (0 no effect, 100 complete control)
# [13] = Postemergence, 31 g ai/ha, 0 to 100 scale (0 no effect, 100 complete control)
# [14] = Postemergence, 62 g ai/ha, scale 0 to 100 (0 no effect, 100 complete control)
# [15] = Postemergence, 125 g ai/ha, scale 0 to 100 (0 no effect, 100 complete control)
# [16] = Postemergence, 250 g ai/ha, scale 0 to 100 (0 no effect, 100 complete control), 13 to 15 days
# [17] = Preemergence, 31 g ai/ha, scale 0 to 100 (0 no effect, 100 complete control)
# [18] = Preemergence, 62 g ai/ha, scale 0 to 100 (0 no effect, 100 complete control)
# [19] = Preemergence, 125 g ai/ha, scale 0 to 100, 0 no effect, 100 complete control
# [20] = Preemergence, 250 g ai/ha, 0 to 100 scale
smiles,measurement,setting,value
CCc1ccc(-n2c(-c3ccccc3)ncc(C(=O)C3=C(O)CCCC3=O)c2=O)cc1 [Compound 219],"Plant response rating, Cocklebur",[1]; [12],75
same,Cocklebur plant response rating,"[1]; 250 g ai/ha, 0 to 100 scale",85
same,"Plant response rating, Goosegrass",[2]; [13],90
same,"Plant response rating, Goosegrass",[2]; [14],95
same,"Plant response rating, Goosegrass",[2]; [15],95
same,"Plant response rating, Goosegrass",[2]; [16],95
same,"Plant response rating, Goosegrass",[2]; [17],98
same,"Plant response rating, Goosegrass",[2]; [18],100
same,"Plant response rating, Goosegrass",[2]; [19],100
same,Goosegrass plant response rating,[2]; [20],100
same,"Plant response rating, Foxtail, Giant",[3]; [13],70
same,"Plant response rating, Foxtail, Giant",[3]; [14],70
same,"Plant response rating, Foxtail, Giant",[3]; [15],80
same,"Plant response rating, Foxtail, Giant",[3]; [16],95
same,"Plant response rating, Foxtail, Giant",[3]; [17],0
same,"Plant response rating, Foxtail, Giant",[3]; [18],0
same,"Plant response rating, Foxtail, Giant",[3]; [19],10
same,"Foxtail, Giant plant response rating",[3]; [20],80
same,"Plant response rating, Foxtail, Green",[4]; [13],70
same,"Plant response rating, Foxtail, Green",[4]; [14],80
same,"Plant response rating, Foxtail, Green",[4]; [15],90
same,"Plant response rating, Foxtail, Green",[4]; [16],90
same,"Plant response rating, Foxtail, Green",[4]; [17],20
same,"Plant response rating, Foxtail, Green",[4]; [18],70
same,"Plant response rating, Foxtail, Green",[4]; [19],90
same,"Foxtail, Green plant response rating",[4]; [20],100
same,"Plant response rating, Ryegrass, Italian",[5]; [13],20
same,"Plant response rating, Ryegrass, Italian",[5]; [14],25
same,"Plant response rating, Ryegrass, Italian",[5]; [16],40
same,"Plant response rating, Ryegrass, Italian",[5]; [17],0
same,"Plant response rating, Ryegrass, Italian",[5]; [18],0
same,"Plant response rating, Ryegrass, Italian",[5]; [19],5
same,"Ryegrass, Italian plant response rating",[5]; [20],10
same,"Plant response rating, Ragweed",[6]; [13],80
same,"Plant response rating, Ragweed",[6]; [14],98
same,"Plant response rating, Ragweed",[6]; [16],100
same,"Plant response rating, Ragweed",[6]; [17],45
same,"Plant response rating, Ragweed",[6]; [18],75
same,"Plant response rating, Ragweed",[6]; [19],85
same,Ragweed plant response rating,[6]; [20],98
same,"Plant response rating, Morningglory",[7]; [13],60
same,"Plant response rating, Morningglory",[7]; [14],85
same,"Plant response rating, Morningglory",[7]; [15],100
same,"Plant response rating, Morningglory",[7]; [16],100
same,"Plant response rating, Morningglory",[7]; [17],0
same,"Plant response rating, Morningglory",[7]; [18],0
same,"Plant response rating, Morningglory",[7]; [19],15
same,Morningglory plant response rating,[7]; [20],100
same,"Plant response rating, Velvetleaf",[8]; [13],85
same,"Plant response rating, Velvetleaf",[8]; [14],90
same,"Plant response rating, Velvetleaf",[8]; [16],98
same,"Plant response rating, Velvetleaf",[8]; [17],0
same,"Plant response rating, Velvetleaf",[8]; [18],75
same,"Plant response rating, Velvetleaf",[8]; [19],90
same,Velvetleaf plant response rating,[8]; [20],95
same,"Plant response rating, Corn",corn (Zea mays); [13],10
same,"Plant response rating, Corn",corn (Zea mays); [14],60
same,"Plant response rating, Corn",corn (Zea mays); [15],75
same,"Plant response rating, Corn",corn (Zea mays); [16],80
same,"Plant response rating, Corn",corn (Zea mays); [17],0
same,"Plant response rating, Corn",corn (Zea mays); [18],0
same,"Plant response rating, Corn",corn (Zea mays); [19],0
same,Corn plant response rating,corn (Zea mays); [20],0
same,"Plant response rating, Crabgrass, Large",[9]; [13],90
same,"Plant response rating, Crabgrass, Large",[9]; [14],95
same,"Plant response rating, Crabgrass, Large",[9]; [15],95
same,"Plant response rating, Crabgrass, Large",[9]; [16],98
same,"Plant response rating, Crabgrass, Large",[9]; [17],10
same,"Plant response rating, Crabgrass, Large",[9]; [18],98
same,"Plant response rating, Crabgrass, Large",[9]; [19],100
same,"Crabgrass, Large plant response rating",[9]; [20],100
same,"Plant response rating, Johnsongrass",[10]; [14],60
same,"Plant response rating, Johnsongrass",[10]; [15],98
same,"Plant response rating, Johnsongrass",[10]; [16],100
same,"Plant response rating, Johnsongrass",[10]; [17],0
same,"Plant response rating, Johnsongrass",[10]; [18],15
same,"Plant response rating, Johnsongrass",[10]; [19],65
same,Johnsongrass plant response rating,[10]; [20],80
same,"Plant response rating, Blackgrass",[11]; [13],50
same,"Plant response rating, Blackgrass",[11]; [14],55
same,"Plant response rating, Blackgrass",[11]; [15],55
same,"Plant response rating, Blackgrass",[11]; [16],90
same,"Plant response rating, Blackgrass",[11]; [17],30
same,"Plant response rating, Blackgrass",[11]; [18],35
same,"Plant response rating, Blackgrass",[11]; [19],40
same,Blackgrass plant response rating,[11]; [20],60
same,"Plant response rating, Soybean",soybean (Glycine max); [13],95
same,"Plant response rating, Soybean",soybean (Glycine max); [14],98
same,"Plant response rating, Soybean",soybean (Glycine max); [16],100
same,"Plant response rating, Soybean",soybean (Glycine max); [17],0
same,"Plant response rating, Soybean",soybean (Glycine max); [18],0
same,"Plant response rating, Soybean",soybean (Glycine max); [19],65
same,Soybean plant response rating,soybean (Glycine max); [20],75
same,"Plant response rating, Kochia","kochia (Kochia scoparia); 31 g ai/ha, 0 to 100 scale (0 no effect, 100 complete control)",80
same,"Plant response rating, Kochia",kochia (Kochia scoparia); [12],98
same,"Plant response rating, Kochia","kochia (Kochia scoparia); 125 g ai/ha, scale 0 to 100 (0 no effect, 100 complete control)",98
same,"Plant response rating, Kochia","kochia (Kochia scoparia); 250 g ai/ha, scale 0 to 100 (0 no effect, 100 complete control), 13 to 15 days",100
